# Like-named read-outs stand apart in the source and are kept apart here.
# Tests used:
# Experiment in all cases: MIC, broth microdilution
# [1] = tested on: 207 Enterobacterales including carbapenem-resistant isolates; type: cell-based
# [2] = tested on: MBL-producing isolates (Enterobacterales); type: cell-based
# [3] = tested on: MEM-, imipenem/relebactam-, and ceftolozane/tazobactam-nonsusceptible P. aeruginosa; type: cell-based, Pseudomonas aeruginosa; conditions: for CLSI MIC interpretation I (intermediate) / CLSI MIC interpretation R (resistant) / CLSI MIC interpretation S (susceptible): marked c: breakpoints for β-lactam alone; for MIC50 / MIC90: Pseudomonas aeruginosa; for MIC50: read-out: MIC50; for MIC90: read-out: MIC90
# [4] = tested on: MEM-nonsusceptible Enterobacterales; type: cell-based
# [5] = tested on: MEM-nonsusceptible Enterobacterales with metallo-carbapenemases; type: cell-based
# [6] = tested on: 96 P. aeruginosa; type: cell-based, Pseudomonas aeruginosa; conditions: Pseudomonas aeruginosa (96); for CLSI MIC interpretation I (intermediate) / CLSI MIC interpretation R (resistant) / CLSI MIC interpretation S (susceptible): CLSI breakpoints, marked c: breakpoints for β-lactam alone; for MIC50 / MIC90: fixed concentration (μg/mL) in label; for MIC50: read-out: MIC50; for MIC90: read-out: MIC90
# [7] = tested on: serine-carbapenemase-producing isolates (Enterobacterales); type: cell-based
# [8] = tested on: MEM-nonsusceptible Enterobacterales with serine-carbapenemases; type: cell-based
# [9] = tested on: 55 isolates of A. baumannii; type: cell-based, Acinetobacter baumannii; conditions: Acinetobacter baumannii (55); for CLSI MIC interpretation I (intermediate) / CLSI MIC interpretation R (resistant) / CLSI MIC interpretation S (susceptible): CLSI breakpoints, marked c: breakpoints for β-lactam alone; for MIC50 / MIC90: fixed concentration (μg/mL) in label; for MIC50: read-out: MIC50; for MIC90: read-out: MIC90
# [10] = All Enterobacterales (207), cefiderocol 205 isolates, CLSI breakpoints, marked c: breakpoints for β-lactam alone, tigecycline: FDA breakpoints
# [11] = Enterobacterales with metallo-carbapenemases (74), cefiderocol 73 isolates, CLSI breakpoints, marked c: breakpoints for β-lactam alone, tigecycline: FDA breakpoints
# [12] = Imipenem/relebactam-nonsusceptible Pseudomonas aeruginosa (43), CLSI breakpoints
# [13] = MEM-nonsusceptible Pseudomonas aeruginosa (76), CLSI breakpoints
# [14] = Imipenem/relebactam-nonsusceptible Pseudomonas aeruginosa (43), fixed concentration (μg/mL) in label
# [15] = MEM-nonsusceptible Pseudomonas aeruginosa (76), fixed concentration (μg/mL) in label
# [16] = MEM-nonsusceptible Enterobacterales (127), cefiderocol 126 isolates, CLSI breakpoints, marked c: breakpoints for β-lactam alone, tigecycline: FDA breakpoints
# [17] = MEM-nonsusceptible Enterobacterales with metallo-carbapenemases (55), cefiderocol 54 isolates, CLSI breakpoints, marked c: breakpoints for β-lactam alone, tigecycline: FDA breakpoints
# [18] = Enterobacterales with serine-carbapenemases (80), CLSI breakpoints, marked c: breakpoints for β-lactam alone, tigecycline: FDA breakpoints
# [19] = MEM-nonsusceptible Enterobacterales with serine-carbapenemases (58), CLSI breakpoints, marked c: breakpoints for β-lactam alone, tigecycline: FDA breakpoints
# [20] = Ceftolozane/tazobactam-nonsusceptible Pseudomonas aeruginosa (45), CLSI breakpoints
# [21] = Ceftolozane/tazobactam-nonsusceptible Pseudomonas aeruginosa (45), fixed concentration (μg/mL) in label
structure (smiles),measurement,setting,value
C[C@H]1COc2c(N3CCN(C)CC3)c(F)cc3c(=O)c(C(=O)O)cn1c23 [Levofloxacin],CLSI MIC interpretation I (intermediate),[1]; [10],3.9%
same,CLSI MIC interpretation R (resistant),[1]; [10],72%
same,CLSI MIC interpretation S (susceptible),[1]; [10],24.2%
same,MIC50,[1]; read-out: MIC50,16 µg/mL
same,MIC90,[1]; read-out: MIC90,64 µg/mL
same,CLSI MIC interpretation I (intermediate),[2]; [11],6.8%
same,CLSI MIC interpretation R (resistant),[2]; [11],81.1%
same,CLSI MIC interpretation S (susceptible),[2]; [11],12.2%
same,MIC50,"[2]; Enterobacterales with metallo-carbapenemases (74), cefiderocol 73 isolates, fixed concentration (μg/mL) in label, read-out: MIC50",32 µg/mL
same,MIC90,"[2]; Enterobacterales with metallo-carbapenemases (74), cefiderocol 73 isolates, fixed concentration (μg/mL) in label, read-out: MIC90",> 64 µg/mL
same,CLSI MIC interpretation (%) I,"[3]; I, intermediate (including susceptible dose-dependent), CLSI breakpoints, last subgroup of Table 2",2.2%
same,CLSI MIC interpretation I (intermediate),[3]; [12],0%
same,CLSI MIC interpretation R (resistant),[3]; [12],100%
same,CLSI MIC interpretation S (susceptible),[3]; [12],0%
same,CLSI MIC interpretation I (intermediate),[3]; [13],1.3%
same,CLSI MIC interpretation R (resistant),[3]; [13],89.5%
same,CLSI MIC interpretation S (susceptible),[3]; [13],9.2%
same,MIC50,[3]; [14],32 µg/mL
same,MIC90,[3]; [14],> 64 µg/mL
same,MIC50,[3]; [15],32 µg/mL
same,MIC90,[3]; [15],> 64 µg/mL
same,MIC50,"[3]; Table 2, broth microdilution",32 µg/mL
same,MIC90,"[3]; Table 2, broth microdilution",64 µg/mL
same,CLSI MIC interpretation (%) R,"[3]; R, resistant, CLSI breakpoints, last subgroup of Table 2",91.1%
same,CLSI MIC interpretation (%) S,"[3]; S, susceptible, CLSI breakpoints, last subgroup of Table 2",6.7%
same,CLSI MIC interpretation I (intermediate),[4]; [16],2.4%
same,CLSI MIC interpretation R (resistant),[4]; [16],79.5%
same,CLSI MIC interpretation S (susceptible),[4]; [16],18.1%
same,MIC50,"[4]; MEM-nonsusceptible Enterobacterales (127), cefiderocol 126 isolates, fixed concentration (μg/mL) in label, read-out: MIC50",32 µg/mL
same,MIC90,"[4]; MEM-nonsusceptible Enterobacterales (127), cefiderocol 126 isolates, fixed concentration (μg/mL) in label, read-out: MIC90",64 µg/mL
same,CLSI MIC interpretation I (intermediate),[5]; [17],5.5%
same,CLSI MIC interpretation S (susceptible),[5]; [17],5.5%
same,MIC50,"[5]; MEM-nonsusceptible Enterobacterales with metallo-carbapenemases (55), cefiderocol 54 isolates, fixed concentration (μg/mL) in label, read-out: MIC50",32 µg/mL
same,MIC90,"[5]; MEM-nonsusceptible Enterobacterales with metallo-carbapenemases (55), cefiderocol 54 isolates, fixed concentration (μg/mL) in label, read-out: MIC90",> 64 µg/mL
same,CLSI MIC interpretation I (intermediate),[6],4.2%
same,CLSI MIC interpretation R (resistant),[6],81.3%
same,CLSI MIC interpretation S (susceptible),[6],14.6%
same,MIC50,[6],32 µg/mL
same,MIC90,[6],64 µg/mL
same,CLSI MIC interpretation I (intermediate),[7]; [18],1.3%
same,CLSI MIC interpretation R (resistant),[7]; [18],71.3%
same,CLSI MIC interpretation S (susceptible),[7]; [18],27.5%
same,MIC50,"[7]; Enterobacterales with serine-carbapenemases (80), fixed concentration (μg/mL) in label, read-out: MIC50",16 µg/mL
same,MIC90,"[7]; Enterobacterales with serine-carbapenemases (80), fixed concentration (μg/mL) in label, read-out: MIC90",> 64 µg/mL
same,CLSI MIC interpretation I (intermediate),[8]; [19],0%
same,CLSI MIC interpretation R (resistant),[8]; [19],75.9%
same,CLSI MIC interpretation S (susceptible),[8]; [19],24.1%
same,MIC50,"[8]; MEM-nonsusceptible Enterobacterales with serine-carbapenemases (58), fixed concentration (μg/mL) in label, read-out: MIC50",32 µg/mL
same,MIC90,"[8]; MEM-nonsusceptible Enterobacterales with serine-carbapenemases (58), fixed concentration (μg/mL) in label, read-out: MIC90",64 µg/mL
same,CLSI MIC interpretation I (intermediate),[9],10.9%
same,CLSI MIC interpretation R (resistant),[9],89.1%
same,CLSI MIC interpretation S (susceptible),[9],0%
same,MIC50,[9],16 µg/mL
same,MIC90,[9],64 µg/mL
C[C@@H](O)[C@H]1C(=O)N2C(C(=O)O)=C(SCCN=CN)C[C@H]12 [Imipenem],CLSI MIC interpretation I (intermediate),[1],7.7%
same,CLSI MIC interpretation R (resistant),[1],55.6%
same,CLSI MIC interpretation S (susceptible),[1],36.7%
same,MIC50,[1],4 µg/mL
same,MIC90,[1],32 µg/mL
same,CLSI MIC interpretation I (intermediate),[2],9.5%
same,CLSI MIC interpretation R (resistant),[2],70.3%
same,CLSI MIC interpretation S (susceptible),[2],20.3%
same,MIC50,[2],4 µg/mL
same,MIC90,[2],> 32 µg/mL
same,CLSI MIC interpretation I (intermediate),[3]; [20],0%
same,CLSI MIC interpretation R (resistant),[3]; [20],95.6%
same,CLSI MIC interpretation S (susceptible),[3]; [20],4.4%
same,CLSI MIC interpretation I (intermediate),[3]; [12],0%
same,CLSI MIC interpretation R (resistant),[3]; [12],97.7%
same,CLSI MIC interpretation S (susceptible),[3]; [12],2.3%
same,CLSI MIC interpretation I (intermediate),[3]; [13],2.6%
same,CLSI MIC interpretation R (resistant),[3]; [13],93.4%
same,CLSI MIC interpretation S (susceptible),[3]; [13],3.9%
same,MIC50,[3]; [21],> 32 µg/mL
same,MIC90,[3]; [21],> 32 µg/mL
same,MIC50,[3]; [14],> 32 µg/mL
same,MIC90,[3]; [14],> 32 µg/mL
same,MIC50,[3]; [15],32 µg/mL
same,MIC90,[3]; [15],> 32 µg/mL
same,CLSI MIC interpretation I (intermediate),[4],10.2%
same,CLSI MIC interpretation R (resistant),[4],79.5%
same,CLSI MIC interpretation S (susceptible),[4],10.2%
same,MIC50,[4],8 µg/mL
same,MIC90,[4],> 32 µg/mL
same,CLSI MIC interpretation I (intermediate),[5],9.1%
same,CLSI MIC interpretation R (resistant),[5],81.8%
same,CLSI MIC interpretation S (susceptible),[5],9.1%
same,MIC50,[5],16 µg/mL
same,MIC90,[5],> 32 µg/mL
same,CLSI MIC interpretation I (intermediate),[6],3.1%
same,CLSI MIC interpretation R (resistant),[6],83.3%
same,CLSI MIC interpretation S (susceptible),[6],13.5%
same,MIC50,[6],16 µg/mL
same,MIC90,[6],> 32 µg/mL
same,CLSI MIC interpretation I (intermediate),[7],7.5%
same,CLSI MIC interpretation R (resistant),[7],68.8%
same,CLSI MIC interpretation S (susceptible),[7],23.8%
same,MIC50,[7],8 µg/mL
same,MIC90,[7],> 32 µg/mL
same,CLSI MIC interpretation I (intermediate),[8],10.3%
same,CLSI MIC interpretation R (resistant),[8],84.5%
same,CLSI MIC interpretation S (susceptible),[8],5.2%
same,MIC50,[8],8 µg/mL
same,MIC90,[8],> 32 µg/mL
same,CLSI MIC interpretation I (intermediate),[9],3.6%
same,CLSI MIC interpretation R (resistant),[9],87.3%
same,CLSI MIC interpretation S (susceptible),[9],9.1%
same,MIC50,[9],32 µg/mL
same,MIC90,[9],> 32 µg/mL
